Common to all, as to type: functional, cell-based
The test system of experiment [1] is UV4. The experiment is described as follows: Compound was evaluated for cytotoxicity against CHO UV4 cell lines for 4 hr at pH-7.4. The note with it: Cricetulus griseus, UV4, 4 h.
Experiment [2] deals with EMT6. Briefly: Compound was evaluated for cytotoxicity against murine mammary carcinoma EMT6 cell lines for 4 hr at pH-7.4. The note with it: Mus musculus, EMT6, 4 h.
For experiment [3], the system named is CHO-AA8. Briefly: Compound was evaluated for cytotoxicity against CHO AA8 cell lines for 4 hr at pH-7.4. The following applies: Cricetulus griseus, CHO-AA8, 4 h.

Bounds are passed on as bounds.

Take `CNc1ccc2c(c1)N(S(C)(=O)=O)CC2CCl` (configuration not stated): the IC50 (usually the midpoint of a concentration-inhibition curve) in experiment [1] is 4.1 µM; in experiment [2], 13 µM; in experiment [3] it was 50 µM.

`CS(=O)(=O)N1CC(CCl)c2ccc(N)cc21` (configuration not stated): the results for the IC50 in experiment [1], in experiment [2] and in experiment [3] were 13 µM, 33 µM and 158 µM, respectively.

For the compound `CS(=O)(=O)N1CC(CCl)c2ccc(SSc3ccc4c(c3)N(S(C)(=O)=O)CC4CCl)cc21` (configuration not stated), the IC50 in experiment [1], in experiment [2] and in experiment [3] was more than 50 µM throughout.

With `CN(C)c1ccc2c(c1)N(S(C)(=O)=O)CC2CCl` (configuration not stated), the results for the IC50 in experiment [1], in experiment [2] and in experiment [3] were 15 µM, 20 µM and 72 µM, respectively.

For `COc1cc2cc(C(=O)N3CC(CCl)c4ccc(O)cc43)[nH]c2c(OC)c1OC` (configuration not stated), the IC50 worked out at 0.001 µM in experiment [1], 0.0022 µM in experiment [2] and 0.0065 µM in experiment [3].

Consider `CS(=O)(=O)N1CC(CCl)c2ccc(O)cc21` (configuration not stated), for which the IC50 in experiment [1] was 1.9 µM; in experiment [2], 7.7 µM; in experiment [3] it was 20 µM.

On to `CSc1ccc2c(c1)N(S(C)(=O)=O)CC2CCl` (configuration not stated), for which the IC50 in experiment [1], in experiment [2] and in experiment [3] was more than 200 µM in each case.

As to `COc1cc2cc(C(=O)N3CC(CCl)c4ccc(N(C)C)cc43)[nH]c2c(OC)c1OC` (configuration not stated), the IC50 in experiment [1] is 0.088 µM; in experiment [2], 0.11 µM; in experiment [3] it was 0.28 µM.

`CS(=O)(=O)N1CC(CCl)c2ccc(S)cc21` (configuration not stated): the IC50 is 124 µM in experiment [1], more than 200 µM in experiment [2] and more than 200 µM in experiment [3].

Regarding `COc1cc2cc(C(=O)N3CC(CCl)c4ccc(N)cc43)[nH]c2c(OC)c1OC` (configuration not stated), the IC50 in experiment [1] worked out at 0.059 µM; in experiment [3], 0.32 µM.

Take `CNc1ccc2c(c1)N(C(=O)c1cc3cc(OC)c(OC)c(OC)c3[nH]1)CC2CCl` (configuration not stated): the IC50 stood at 0.055 µM in experiment [1], 0.11 µM in experiment [2] and 0.22 µM in experiment [3].
